Patent US10301272B2, “Carboxamide or sulfonamide substituted thiazoles and related derivatives as modulators for the orphan nuclear receptor ROR[γ]” (Phenex Pharmaceuticals AG, priority 2012, dated 2019)
Where two headings read alike, the source gives them in different places.

Columns and labels:
RORγ = RORγ (Homo sapiens, UniProt P51449); assay: RORγ Gal4 Reporter Gene Assay; format: cell-based
Experimental: Determination of a ligand mediated Gal4 promoter driven transactivation to quantify ligand binding to RORγ was performed as follows: DNA encoding three different RORγ protein fragments was cloned into vector pCMV-BD (Stratagene). Expression was under control of a CMV promoter and as fusion to the DNA-binding domain of the yeast protein GAL4. Other vectors used were pFR-Luc (Stratagene) as regulated reporter plasmid. pFR-Luc contains a synthetic promoter with five tandem repeats of the yeast GAL4 binding sites that control expression of the Photinus pyralis (American firefly) luciferase gene. In order to improve experimental accuracy the plasmid pRL-CMV was cotransfected. pRL-CMV contains the constitutive CMV promoter, controlling the expression of the Renilla reniformis luciferase.
The medium is supplemented with 10% fetal bovine serum, 0.1 mM nonessential amino acids, 1 mM sodium pyruvate, 1% Glutamax and 100 units Penicilin/[…] per mL at 37° C. in 5% CO2.
For the assay, […] were plated per well in 96 well plates in 100 μL per well, incubated over night at 37° C. in 5% CO2. […] About 4 h after addition of the transfection solution, fresh Minimal Essential Medium (MEM, same composition as used for plating cells, but without serum) was added. Then compound stocks, prediluted in MEM (same composition as used for plating cells) were added (final vehicle concentration not exceeding 0.1%).
All experiments were done at least in triplicates.

[1] = molecular target: RORγ ligand binding domain (LBD) (Homo sapiens (Human), UniProt P51449); assay: TR-FRET Activity Assay (ligand sensing assay, LANCE); conditions: TR-FRET, interaction of RORγ-LBD with coactivator peptide
RORγ ligand binding domain (LBD), sequence (P51449 269-508): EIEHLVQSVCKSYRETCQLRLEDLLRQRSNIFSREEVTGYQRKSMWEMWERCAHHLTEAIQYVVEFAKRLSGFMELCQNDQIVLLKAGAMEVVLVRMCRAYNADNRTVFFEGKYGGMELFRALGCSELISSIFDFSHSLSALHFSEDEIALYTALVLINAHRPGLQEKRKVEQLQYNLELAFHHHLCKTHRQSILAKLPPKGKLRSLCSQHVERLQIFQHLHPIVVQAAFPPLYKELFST
Text: The ligand-binding domain (LBD) of RORγ was expressed as fusion protein with GST in BL-21 (BL3) cells using the vector pDEST15. Cells were lysed by lysozyme-treatment and sonication, and the fusion proteins purified over glutathione sepharose (Pharmacia) according to the manufacturers instructions. For screening of compounds for their influence on the RORγ-peptide interaction, the LANCE technology (Perkin Elmer) was applied. This method relies on the binding dependent energy transfer from a donor to an acceptor fluorophor attached to the binding partner of interest. For ease of handling and reduction of background from compound fluorescence LANCE technology makes use of generic fluorophore labels and time resolved detection assays were done in a final volume of 25 μL in a 384 well plate, in a Tris-based buffer system (20 mM Tris-HCl pH 6.8; 60 mM KCl, 1 mM DTT; 5 mM MgCl2; 35 ng/μL BSA), containing 20-60 ng/well recombinantly expressed RORγ-LBD fused to GST, 200-600 nM N-terminally biotinylated peptide, 200 ng/well Streptavidin-xlAPC conjugate (Prozyme) and 6-10 ng/well Eu W1024-antiGST (Perkin Elmer). DMSO content of the samples was kept at 1%.
After generation of the Tris-based buffer system, the potentially RORγ modulating ligands were diluted. […] The LANCE signal was detected by a Perkin Elmer EnVision™ Multilabel Counter. […] Ligands that promote the complex formation induce a concentration-dependent increase in time-resolved fluorescent signal.
Y is the response. Y starts at Bottom and goes to Top with a sigmoidal shape.
This is identical to the “four parameter logistic equation”. The IC50 values are calculated using this equation.

RORγ, sequence (P51449 whole entry, looked up, the tested form may be a part): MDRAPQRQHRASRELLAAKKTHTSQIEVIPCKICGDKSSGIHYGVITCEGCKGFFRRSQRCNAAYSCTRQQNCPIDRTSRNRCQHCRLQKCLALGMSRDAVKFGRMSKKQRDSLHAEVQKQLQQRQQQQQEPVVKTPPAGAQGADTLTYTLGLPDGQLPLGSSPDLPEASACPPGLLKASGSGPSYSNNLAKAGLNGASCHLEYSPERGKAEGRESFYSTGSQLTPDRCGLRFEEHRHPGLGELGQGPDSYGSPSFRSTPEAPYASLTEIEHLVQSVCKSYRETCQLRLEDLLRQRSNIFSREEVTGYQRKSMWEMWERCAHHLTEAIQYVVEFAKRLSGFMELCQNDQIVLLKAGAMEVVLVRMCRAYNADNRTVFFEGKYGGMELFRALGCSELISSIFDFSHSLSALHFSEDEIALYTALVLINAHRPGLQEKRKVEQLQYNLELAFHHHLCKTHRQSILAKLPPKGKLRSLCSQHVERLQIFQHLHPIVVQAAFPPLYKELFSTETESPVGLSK

CC(C)(O)CC(=O)Nc1nc(CC2CCCCC2)c(-c2ccc(S(=O)(=O)NC(C)(C)C)c(C(F)(F)F)c2)s1 [Example 200, N-(5-(4-(N-(tert-Butyl)sulfamoyl)-3-(trifluoromethyl)phenyl)-4-(cyclohexylmethyl)thiazol-2-yl)-3-hydroxy-3-methylbutanamide]
pIC50 (FF) (RORγ): 6.6/7.5/7.8 | pIC50 (REN) (RORγ): 6.6/7.5/7.8 | pIC50 (FRET) [1]: 6.6/7.5/7.8

CC(C)(C)c1cc(-c2sc(C(=O)NC3CC(C(=O)O)C3)nc2CC2CCCCC2)nc(C(C)(C)C)n1 (stereo not drawn) [19/13]
pIC50 (FF) (RORγ; firefly (FF) luciferase, 293T cells): 6.9 | pIC50 (REN) (RORγ; renilla normalised (RENnorm) luciferase, 293T cells): 6.9 | pIC50 (FRET) [1]: 6.5

CC(C)(C)NS(=O)(=O)c1ccc(-c2oc(C(=O)N[C@H]3C[C@H](C(=O)O)C3)nc2CC2CCCCC2)c(Cl)c1Cl [100/17]
pIC50 (FF) (RORγ): 6.1/7.1/7.0 | pIC50 (REN) (RORγ): 6.1/7.1/7.0 | pIC50 (FRET) [1]: 6.1/7.1/7.0

COC(c1nc(C(=O)N[C@H]2C[C@H](C(=O)O)C2)sc1-c1cc(C(C)(C)C)cc(C2(C)CC2)c1)C1CCCCC1 (stereo partly drawn) [19/2]
pIC50 (FF) (RORγ): 6.1/7.0/7.0 | pIC50 (REN) (RORγ): 6.1/7.0/7.0 | pIC50 (FRET) [1]: 6.1/7.0/7.0

CC(C)(C)NS(=O)(=O)c1ccc(-c2sc(C(=O)NC3COC3)nc2CC2CCCCC2)c(Cl)c1Cl [6/34]
pIC50 (FF) (RORγ): 7.2/8.5/8.5 | pIC50 (REN) (RORγ): 7.2/8.5/8.5 | pIC50 (FRET) [1]: 7.2/8.5/8.5

COC(c1nc(C(=O)N[C@H]2C[C@H](C(=O)O)C2)sc1-c1ccc(S(=O)(=O)NC(C)(C)C)c(C(C)(C)C)c1)C1CCCCC1 (stereo partly drawn) [Example 19, trans-3-(5-(3-(tert-Butyl)-4-(N-(tert-butyl)sulfamoyl)phenyl)-4-(cyclohexyl(methoxy)methyl)thiazole-2-carboxamido)cyclobutanecarboxylic acid]
pIC50 (FF) (RORγ): 5.4/6.4/6.6 | pIC50 (REN) (RORγ): 5.4/6.4/6.6 | pIC50 (FRET) [1]: 5.4/6.4/6.6

CC1CC(C)CN(C(=O)c2nc(C(=O)NCC(C)(C)O)sc2-c2ccc(S(=O)(=O)NC(C)(C)C)c3ccccc23)C1 (stereo not drawn) [304/8]
pIC50 (FF) (RORγ): 6.0/6.9/6.9 | pIC50 (REN) (RORγ): 6.0/6.9/6.9 | pIC50 (FRET) [1]: 6.0/6.9/6.9

CC(C)(C)NS(=O)(=O)c1ccc(-c2oc(C(=O)N[C@H]3C[C@H](C(=O)NS(C)(=O)=O)C3)nc2CC2CCCCC2)c2ccccc12 [Example 102/1]
pIC50 (FF) (RORγ): 6.1/6.7/6.7 | pIC50 (REN) (RORγ): 6.1/6.7/6.7 | pIC50 (FRET) [1]: 6.1/6.7/6.7

CC(C)(C)NS(=O)(=O)c1ccc(-c2sc(C(=O)NC3CS(=O)(=O)C3)nc2CC2CCCCC2)cc1C(C)(C)O [15/3]
pIC50 (FF) (RORγ): 6.9/7.9/7.9 | pIC50 (REN) (RORγ): 6.9/7.9/7.9 | pIC50 (FRET) [1]: 6.9/7.9/7.9

CC(C)(C)NS(=O)(=O)c1ccc(-c2sc(C(=O)NC3C[S+]([O-])C3)nc2CC2CCCCC2)cc1C(C)(C)O (stereo not drawn) [15/2]
pIC50 (FF) (RORγ): 6.6/7.3/7.3 | pIC50 (REN) (RORγ): 6.6/7.3/7.3 | pIC50 (FRET) [1]: 6.6/7.3/7.3

CC(C)(C)c1cc(-c2nc(C(N)=O)sc2CC2CCCCC2)cc(C(C)(C)C)c1 [Example 1, 5-(Cyclohexylmethyl)-4-(3,5-di-tert-butylphenyl)thiazole-2-carboxamide]
pIC50 (FF) (RORγ): 6.5/5.8/5.8 | pIC50 (REN) (RORγ): 6.5/5.8/5.8 | pIC50 (FRET) [1]: 6.5/5.8/5.8

CC(C)(C)NS(=O)(=O)c1ccc(-c2oc(C(=O)NC34CCC(C(=O)O)(CC3)CC4)nc2CC2CCCCC2)c2ccccc12 [100/14]
pIC50 (FF) (RORγ): 5.8/7.9/7.9 | pIC50 (REN) (RORγ): 5.8/7.9/7.9 | pIC50 (FRET) [1]: 5.8/7.9/7.9

CC(C)(C)NS(=O)(=O)c1ccc(-c2sc(NS(C)(=O)=O)nc2CC2CCCCC2)cc1C(F)(F)F [Example 201, N-(tert-Butyl)-4-(4-(cyclohexylmethyl)-2-(methylsulfonamido)thiazol-5-yl)-2-(trifluoromethyl)benzenesulfonamide]
pIC50 (FF) (RORγ): 6.0/6.5/6.6 | pIC50 (REN) (RORγ): 6.0/6.5/6.6 | pIC50 (FRET) [1]: 6.0/6.5/6.6

CC(C)(C)NS(=O)(=O)c1ccc(-c2sc(C(=O)N3CC4(CC[S+]([O-])CC4)C3)nc2CC2CCCCC2)c2ccccc12 [15/9]
pIC50 (FF) (RORγ): 6.4/7.8/7.9 | pIC50 (REN) (RORγ): 6.4/7.8/7.9 | pIC50 (FRET) [1]: 6.4/7.8/7.9
